For data set [1], the system named is astrocyte/neuron co-culture. As to the kind of experiment: Brain cell damage induced by hydrogen peroxide treatment (LDH assay). Type of data set: cell-based. As to conditions: Rattus norvegicus, hydrogen peroxide (250 μM), 24 hours, read-out: 50% inhibition concentration against cell damage in entire co-culture system (EC50 value). The protocol: (§1) The brain was removed from 1 to 2 day old Wistar rats (Charles River) or Sprague-Dawley (IGS) rats (Charles River), and the cerebral cortex including the hippocampus was excised under ice cooling. After this cerebral cortex was minced, it was digested with papain solution (9 U/ml) containing DNase I (30 U/ml) at 37 degrees Celsius for 15 minutes, dispersing the cells. After further carrying out mechanical dispersing by pipetting, it was passed through a cell strainer with a pore size of 70 μm, and a cell suspension was obtained. Cells derived from 1.4 cerebra were seeded on 150 mm tissue culture dish (Iwaki Glass), and primary culture was carried out at 37 degrees Celsius and 5% CO2 using a D-MEM medium (Invitrogen) containing 10% heat-inactivated fetal calf serum (JRH). One day after the start of the culture, the nonadherent cells were removed, and the primary cultured astrocytes were obtained by continuing the culture for 4 to 5 further days. The primary cultured astrocytes were dispersed by trypsin treating, suspended in cryopreservation solution, and cryopreserved.
(§2) After thawing the cryopreserved primary cultured astrocytes, they were seeded on tissue culture plates (Iwaki Glass), and a confluent astrocyte layer was produced by a further 7 days of secondary culture using a D-MEM medium containing 10% heat-inactivated fetal calf serum. Neurons to be used in the co-culture with the astrocyte layer were obtained from fetal rat cerebrum. Briefly, brains were removed from Wistar rats (Charles River) or Sprague-Dawley (IGS) rats (Charles River) of embryonic age 18.5 days, and the cerebral cortex including the hippocampus was excised under ice cooling. After this cerebral cortex was minced, it was digested in papain solution (9 U/ml) containing DNase I (30 U/ml) at 37 degrees Celsius for 15 minutes, dispersing the cells. After further carrying out mechanical dispersing by pipetting, it was passed through a cell strainer with a pore size of 70 μm, and a cell suspension was obtained. This cell suspension was plated at a density of 1.3×10^5 cells/cm^2 on the astrocyte layer, and a co-culture was carried out using D-MEM/F-12 medium (Invitrogen) containing 10% heat-inactivated fetal calf serum and 5% horse serum (Invitrogen). 2 days after the start of the co-culture, cells were treated for 24 hours with 10 μM cytosine arabinoside in order to suppress the excessive cell proliferation of microglia and the like. 8 to 9 days after the start of the co-culture, cells were used for the test. Additionally, using one portion of the cells, immunofluorescent staining and nuclear staining was carried out with astrocyte recognizing antibodies (anti-GFAP) and neuron recognizing antibodies (anti-MAP2), in order to confirm that the present culture system is a co-culture system of astrocytes and neurons.
(§3) An astrocyte/neuron co-culture cultured on a 96 well plate was used in the test. A predetermined concentration of the test substance and hydrogen peroxide (250 μM) was simultaneously added to the cell culture in each well with continuing cultivation, and analysis was done 24 hours after this treatment. Using an LDH Cytotoxicity Detection Kit (Takara Bio), analysis was carried out in accordance with the included instruction manual, and the damage to the entire co-culture system by the hydrogen peroxide treatment and the protective effect (EC 50 value) of the test substance was evaluated. Further, the cell bodies and the neuronal processes of the neurons were observed by microscope, and the neuroprotective effect was evaluated.

In data set [2] the test system is neurons in astrocyte/neuron co-culture. The data set can be described thus: Brain cell damage induced by hydrogen peroxide treatment (neuroprotective effect, microscope observation). In kind it is cell-based. As to conditions: Rattus norvegicus, hydrogen peroxide (250 μM), 24 hours, read-out: Concentration for complete inhibition of neuronal death. How it is done:
as §1, §2, §3

The term melting point denotes the temperature of the solid-liquid transition.

With `Cc1ccc(N2CCN(c3nc(NCCN4CCNCC4)nc(N4CCOCC4)c3F)CC2)cc1` [Compound 158, 5-fluoro-4-[4-(4-methylphenyl)piperazin-1-yl]-6-morpholino-2-[2-(piperazin-1-yl)-ethylamino]pyrimidine], the EC50 in data set [1] was found to be 160 nM. The EC100 in data set [2] is 1 µM.

Consider `COc1ccc(/C=C/c2nc(NCCN)c(N)c(N3CCOCC3)n2)cc1` [Compound 174, 5-amino-4-(2-aminoethylamino)-2-[2-(4-methoxyphenyl)vinyl]-6-morpholinopyrimidine], for which the EC50 in data set [1] is 3110 nM. In addition, the EC100 in data set [2] came out at 10 µM.

With `CCCNc1cc(N2CCOCC2)nc(N2CCN(c3ccccc3)CC2)n1` [Compound 56, 4-morpholino-2-(4-phenylpiperazin-1-yl)-6-propylaminopyrimidine], in data set [1], the EC50 worked out at 2950 nM. Moreover, the EC100 in data set [2] was determined as 10 µM.

In the case of `Cc1ccccc1N1CCN(c2nc(N3CCOCC3)c(F)c(N3CCN(c4ccccc4)CC3)n2)CC1` [Compound 128, 5-fluoro-2-[4-(2-methylphenyl)piperazin-1-yl]-6-morpholino-4-(4-phenylpiperazin-1-yl)pyrimidine], the EC50 in data set [1] is 300 nM. Besides, in data set [2], the EC100 amounted to 3 µM.

As for `Cc1cccc(N2CCN(c3nc(N4CCN(Cc5ccc(N(C)C)cc5)CC4)nc(N4CCOCC4)c3F)CC2)c1C` [Compound 192, 5-fluoro-2-[4-(4-dimethylaminobenzyl)piperazin-1-yl]-4-morpholino-6-[4-(2,3-xylyl)piperazin-1-yl]pyrimidine], the EC50 in data set [1] came out at 300 nM. For the same compound, the EC100 in data set [2] was 1 µM.

Regarding `Cc1ccc(N2CCN(c3nc(N4CCOCC4)nc(N4CCN(C)CC4)c3F)CC2)cc1` [Compound 155, 5-fluoro-4-[4-(4-methylphenyl)piperazin-1-yl]-6-(4-methylpiperazin-1-yl)-2-morpholinopyrimidine], the EC50 in data set [1] worked out at 320 nM. Also, the EC100 in data set [2] was found to be 3 µM.

Turning to `Cc1cccc(N2CCN(c3nc(N4CCOCC4)c(F)c(N4CCN(C(=O)OC(C)(C)C)CC4)n3)CC2)c1C` [Compound 179, 4-(4-tert-butoxycarbonylpiperazin-1-yl)-5-fluoro-6-morpholino-2-[4-(2,3-xylyl)piperazin-1-yl]pyrimidine], in data set [1], the EC50 turned out to be 340 nM. Moreover, the EC100 in data set [2] is 3 µM.

Consider `CC1CCc2cc(F)ccc2N1c1nc(N2CCOCC2)c(N)c(N2CCOCC2)n1` (stereo not drawn) [Compound 71, 5-amino-2-(6-fluoro-2-methyl-1,2,3,4-tetrahydroquinolin-1-yl)-4,6-dimorpholinopyrimidine], for which the EC50 in data set [1] is 1960 nM.

As to `Fc1c(N2CCOCC2)nc(N2CCN(C3CCCCC3)CC2)nc1N1CCOCC1` [Compound 123, 2-(4-cyclohexylpiperazin-1-yl)-5-fluoro-4,6-dimorpholinopyrimidine], the EC50 in data set [1] was 2980 nM. In addition, the EC100 in data set [2] stood at 10 µM.

For `CC(C)(C)OC(=O)N1CCN(c2nc(N3CCCc4ccccc43)nc(N3CCOCC3)c2F)CC1` [Compound 168, 4-[4-(tert-butoxycarbonyl)piperazin-1-yl]-5-fluoro-6-morpholino-2-(1,2,3,4-tetrahydro-1H-quinolin-1-yl)pyrimidine], the EC50 in data set [1] came to 310 nM. The EC100 in data set [2] was determined as 3 µM.

`Cc1cccc(N2CCN(c3nc(N4CCN(Cc5ccncc5)CC4)nc(N4CCOCC4)c3F)CC2)c1C` [Compound 191, 5-fluoro-4-morpholino-2-[4-(4-pyridinylmethyl)piperazin-1-yl]-6-[4-(2,3-xylyl)piperazin-1-yl]-pyrimidine] returned a melting point of 127 to 128 °C. Moreover, the EC50 in data set [1] turned out to be 730 nM.

For the compound `Cc1ccc(N2CCN(c3nc(N4CCOCC4)c(F)c(N4CCN(C(=O)OC(C)(C)C)CC4)n3)CC2)cc1` [Compound 153, 4-[4-(tert-butoxycarbonyl)piperazin-1-yl]-5-fluoro-2-[4-(4-methylphenyl)piperazin-1-yl]-6-morpholinopyrimidine], the EC50 in data set [1] was 450 nM. Also, the EC100 in data set [2] is 3 µM.

Regarding `c1ccc(N2CCN(c3nc(N4CCNCC4)cc(N4CCOCC4)n3)CC2)cc1` [Compound 52, 4-morpholino-2-(4-phenylpiperazin-1-yl)-6-(piperazin-1-yl)pyrimidine], the EC50 in data set [1] was 3160 nM. Also, the EC100 in data set [2] amounted to 30 µM.

For `Nc1c(N2CCOCC2)nc(N2CCOCC2)nc1N1CCC(Cc2ccccc2)CC1` [Compound 67, 5-amino-4-(4-benzylpiperidin-1-yl)-2,6-dimorpholinopyrimidine], the EC50 in data set [1] was found to be 1780 nM.

As to `CC(=O)Nc1c(N2CCOCC2)nc(N2CCOCC2)nc1N1CCC(Cc2ccccc2)CC1` [Compound 78, 5-acetylamino-4-(4-benzylpiperidin-1-yl)-2,6-dimorpholinopyrimidine], in data set [1], the EC50 was found to be 9750 nM. Moreover, the EC100 in data set [2] was 30 µM.

On to `CN1CCN(c2nc(N3CCCc4ccccc43)nc(N3CCOCC3)c2F)CC1` [Compound 167, 5-fluoro-4-(4-methylpiperazin-1-yl)-6-morpholino-2-(1,2,3,4-tetrahydro-1H-quinolin-1-yl)pyrimidine], for which the EC50 in data set [1] is 280 nM.

For `CN1CCN(c2nc(N3CCN(c4ccccc4Cl)CC3)nc(N3CCOCC3)c2F)CC1` [Compound 187, 2-[4-(2-chlorophenyl)piperazin-1-yl]-5-fluoro-6-(4-methylpiperazin-1-yl)-4-morpholino pyrimidine], the EC50 in data set [1] was found to be 330 nM. Besides, the EC100 in data set [2] was found to be 1 µM.

In turn, `CN(C)c1cc(N2CCOCC2)nc(N2CCN(c3ccccc3)CC2)n1` [Compound 2, 4-dimethylamino-6-morpholino-2-(4-phenylpiperazin-1-yl)pyrimidine] displayed a melting point of 149 °C. Moreover, the EC50 in data set [1] is 18400 nM.

`Cc1ccc(N2CCN(c3nc(N4CCOCC4)nc(NCCN4CCOCC4)c3F)CC2)cc1` [Compound 160, 5-fluoro-4-[4-(4-methylphenyl)piperazin-1-yl]-2-morpholino-6-(2-morpholinoethylamino)pyrimidine]: the EC50 in data set [1] turned out to be 1080 nM. The EC100 in data set [2] worked out at 3 µM.

`Fc1ccccc1N1CCN(c2nc(N3CCOCC3)c(F)c(N3CCN(c4ccccc4F)CC3)n2)CC1` [Compound 126, 2,4-bis[4-(2-fluorophenyl)piperazin-1-yl]-5-fluoro-6-morpholinopyrimidine] had a melting point of 131 to 132 °C. The EC50 in data set [1] was 800 nM.

On to `COc1ccc(/C=C/c2nc(N(C)C)c(N)c(N3CCNCC3)n2)cc1` [Compound 210, 5-amino-4-dimethylamino-2-[2-(4-methoxyphenyl)vinyl]-6-(1-piperazinyl)pyrimidine], for which, in data set [1], the EC50 amounted to 4070 nM. In data set [2], the EC100 was 10 µM.

In the case of `N#CC1(c2ccccc2)CCN(c2nc(N3CCOCC3)nc(N3CCOCC3)c2F)CC1` [Compound 115, 4-(4-cyano-4-phenylpiperidin-1-yl)-5-fluoro-2,6-dimorpholinopyrimidine], the EC50 in data set [1] turned out to be 630 nM.

Compound `Fc1ccccc1N1CCN(c2nc(N3CCN(c4ccccc4)CC3)nc(N3CCOCC3)c2F)CC1` [Compound 125, 5-fluoro-4-[4-(2-fluorophenyl)piperazin-1-yl]-6-morpholino-2-(4-phenylpiperazin-1-yl)pyrimidine] came in with a melting point of 140 to 141 °C. The EC50 in data set [1] is 560 nM.

`CN1CCN(c2nc(N3CCOCC3)nc(N3CCN(c4ccccc4)CC3)c2F)CC1` [Compound 171, 5-fluoro-4-(4-methylpiperazin-1-yl)-2-morpholino-6-(4-phenylpiperazin-1-yl)pyrimidine]: in data set [1], the EC50 came out at 490 nM.

In the case of `CCN(CC)c1ccc(CCCCc2nc(N3CCOCC3)c(N)c(N3CCOCC3)n2)cc1` [Compound 145, 5-amino-2-[4-(4-diethylaminophenyl)butyl]-4,6-dimorpholinopyrimidine], the EC50 in data set [1] was determined as 670 nM.

As for `c1ccc2c(c1)CCN(c1nc(N3CCOCC3)cc(N3CCOCC3)n1)C2` [Compound 6, 4,6-dimorpholino-2-(1,2,3,4-tetrahydro-2H-isoquinolin-2-yl)pyrimidine], the EC50 in data set [1] was 8240 nM.

(Values after US8563715B2, “Pyrimidine derivative having cell protecting effect and uses thereof” (Zenyaku Kogyo Kabushikikaisha, priority 2008, dated 2013).)
